From patent US11684614B2, “Formulations of hydroxypyridonate actinide/lanthanide decorporation agents” (priority 2017, dated 2023)

Test: 3,4,3-LI(1,2-HOPO)-excipient compatibility study (visual observation, HPLC purity and impurities on storage)
Assay type: physicochemical
Conditions: for 3L1O Purity / Total Impurities: n = 1
Procedure: The objective of the analytical study described in this report was to evaluate the interactions between 3,4,3-L1(1,2-HOPO) and selected pharmaceutical excipients under 25° C./60% RH and 40° C./75% RH conditions over eight weeks. Physical appearance and potency of the different samples were assessed at T=0, 2, 4, and 8 weeks through visual observations and high performance liquid chromatography (HPLC) analysis.
The stability of 3,4,3-L1(1,2-HOPO) was tested according to the conditions listed below in TABLE 1.1. A11 test samples were stored throughout the study in 40 mL clear USP Type 1 glass vials (28 mm OD×95 mm height; 24 mm screw cap), wrapped in aluminum foil.
• Test Samples: Each test mixture was prepared by weighing the desired quantity of 3,4,3-L1(1,2-HOPO) and excipient (both screened through sieve #40) into vials. Both ingredients were first mixed using a clean glass rod and then vortexed. At each time interval, one vial was withdrawn from each drug-excipient series along with the corresponding placebo preparation and tested as described below.
b. Sample Characterization • Visual Observation: For each sample solution, visual observation consisted in recording color and physical form.
c. Chromatographic Assay and Purity Assessment • Standard Stock Solutions: For each standard stock solutions, the test article was weighed (200 mg) and dissolved by sonication into 30 mL of diluent (water:acetonitrile=90%:10%). After equilibration at room temperature, the volume of the standard solution was adjusted to 50 mL. Standard stock solutions were prepared in duplicates, working standard solutions were prepared by dilution of each stock with the diluent to the desired concentrations. • Calibration Standards: With each experiment, 5 calibration standard solutions at different concentrations were prepared from stock solutions using the diluent. Concentrations of the calibration standards were between 1.6 and 2.4 mg/mL. […] The vials were then mechanically shaken for 15 minutes, followed by centrifugation of the sample solutions (10,000 rpm, 10 min), and the supernatants were used for the assay. • Placebo Preparation: 25 mL of diluent was added to each of the placebo vial. The vials were then mechanically shaken for 15 minutes, followed by centrifugation of the sample solutions (10,000 rpm, 10 min), and the supernatants were used for the assay. Analytical Method: Instrument: Waters Alliance 2695 liquid chromatography system Column: Agilent, Eclipse XDB-C18, 4.6×150 mm, 5 μm. Mobile Phase A: 0.05% formic acid in 95% H2O: 5% ACN Mobile Phase B: 0.05% formic acid in acetonitrile (ACN)
Column Temperature: 25° C. Flow Rate: 1.0 mL/min. Injection Volume: 10 μL Detection: 250 nm Run Time: 50 min Diluent: 9:1 H2O:ACN Analysis Sequence:
• Suitability Requirements: There should be no interference from the diluent/blank at the retention times of 3,4,3-L1(1,2-HOPO) peaks. The relative standard deviation (% RSD) for five replicate system suitability injections should be below 2.0%. The response factor of the second standard should be within 95-105%. The correlation coefficient (R2) of the system linearity standards should be higher than 0.990. 5. Results

O=C(NCCCN(CCCCN(CCCNC(=O)c1cccc(=O)n1O)C(=O)c1cccc(=O)n1O)C(=O)c1cccc(=O)n1O)c1cccc(=O)n1O [3,4,3-L1(1,2-HOPO)]
Stability of 3,4,3-L1(1,2-HOPO) (25° C./60% RH and 40° C./75% RH, over 8 weeks): stable over 8 weeks
Unknown Impurity RRT 0.24 (25° C./60% RH, 2 Weeks): 0.03 % w/w
Unknown Impurity RRT 0.58 (25° C./60% RH, 2 Weeks): 0.05 % w/w
Unknown Impurity RRT 0.59 (25° C./60% RH, 2 Weeks): 0.05 % w/w
Unknown Impurity RRT 0.62 (25° C./60% RH, 2 Weeks): 0.05 % w/w
Unknown Impurity RRT 0.87 (25° C./60% RH, 2 Weeks): 0.12 % w/w
Unknown Impurity RRT 0.89 (25° C./60% RH, 2 Weeks): 0.03 % w/w
Unknown Impurity RRT 1.02 (25° C./60% RH, 2 Weeks): 0.08 % w/w
Unknown Impurity RRT 1.11 (25° C./60% RH, 2 Weeks): 0.05 % w/w
Unknown Impurity RRT 1.27 (25° C./60% RH, 2 Weeks): 0.36 % w/w
Unknown Impurity RRT 1.3 (25° C./60% RH, 2 Weeks): 0.22 % w/w
Unknown Impurity RRT 1.39 (25° C./60% RH, 2 Weeks): 0.07 % w/w
Unknown Impurity RRT 1.41 (25° C./60% RH, 2 Weeks): 0.03 % w/w
Unknown Impurity RRT 1.46 (25° C./60% RH, 2 Weeks): 0.08 % w/w
Unknown Impurity RRT 2.31 (25° C./60% RH, 2 Weeks): 0.05 % w/w
Unknown Impurity RRT 2.6 (25° C./60% RH, 2 Weeks): 0.04 % w/w
Unknown Impurity RRT 2.8 (25° C./60% RH, 2 Weeks): 0.03 % w/w
3L1O Purity (25° C./60% RH, 2 Weeks): 98.67 % Area
Total Impurities (25° C./60% RH, 2 Weeks): 1.33 % Area
Unknown Impurity RRT 0.24 (25° C./60% RH, 4 weeks): 0.03 % w/w
Unknown Impurity RRT 0.58 (25° C./60% RH, 4 weeks): 0.07 % w/w
Unknown Impurity RRT 0.6 (25° C./60% RH, 4 weeks): 0.05 % w/w
Unknown Impurity RRT 0.62 (25° C./60% RH, 4 weeks): 0.05 % w/w
Unknown Impurity RRT 0.87 (25° C./60% RH, 4 weeks): 0.14 % w/w
Unknown Impurity RRT 0.89 (25° C./60% RH, 4 weeks): 0.02 % w/w
Unknown Impurity RRT 1.03 (25° C./60% RH, 4 weeks): 0.04 % w/w
Unknown Impurity RRT 1.11 (25° C./60% RH, 4 weeks): 0.05 % w/w
Unknown Impurity RRT 1.27 (25° C./60% RH, 4 weeks): 0.28 % w/w
Unknown Impurity RRT 1.3 (25° C./60% RH, 4 weeks): 0.26 % w/w
Unknown Impurity RRT 1.39 (25° C./60% RH, 4 weeks): 0.07 % w/w
Unknown Impurity RRT 1.41 (25° C./60% RH, 4 weeks): 0.01 % w/w
Unknown Impurity RRT 1.46 (25° C./60% RH, 4 weeks): 0.09 % w/w
Unknown Impurity RRT 1.72 (25° C./60% RH, 4 weeks): 0.05 % w/w
Unknown Impurity RRT 2.3 (25° C./60% RH, 4 weeks): 0.05 % w/w
Unknown Impurity RRT 2.59 (25° C./60% RH, 4 weeks): 0.04 % w/w
Unknown Impurity RRT 2.79 (25° C./60% RH, 4 weeks): 0.03 % w/w
3L1O Purity (25° C./60% RH, 4 weeks): 98.66 % Area
Total Impurities (25° C./60% RH, 4 weeks): 1.34 % Area
Unknown Impurity RRT 0.24 (25° C./60% RH, 8 Weeks): 0.04 % w/w
Unknown Impurity RRT 0.58 (25° C./60% RH, 8 Weeks): 0.07 % w/w
Unknown Impurity RRT 0.59 (25° C./60% RH, 8 Weeks): 0.05 % w/w
Unknown Impurity RRT 0.62 (25° C./60% RH, 8 Weeks): 0.06 % w/w
Unknown Impurity RRT 0.87 (25° C./60% RH, 8 Weeks): 0.15 % w/w
Unknown Impurity RRT 0.89 (25° C./60% RH, 8 Weeks): 0.02 % w/w
Unknown Impurity RRT 1.03 (25° C./60% RH, 8 Weeks): 0.08 % w/w
Unknown Impurity RRT 1.11 (25° C./60% RH, 8 Weeks): 0.05 % w/w
Unknown Impurity RRT 1.27 (25° C./60% RH, 8 Weeks): 0.41 % w/w
Unknown Impurity RRT 1.3 (25° C./60% RH, 8 Weeks): 0.23 % w/w
Unknown Impurity RRT 1.39 (25° C./60% RH, 8 Weeks): 0.07 % w/w
Unknown Impurity RRT 1.41 (25° C./60% RH, 8 Weeks): 0.01 % w/w
Unknown Impurity RRT 1.46 (25° C./60% RH, 8 Weeks): 0.09 % w/w
Unknown Impurity RRT 1.73 (25° C./60% RH, 8 Weeks): 0.06 % w/w
Unknown Impurity RRT 2.31 (25° C./60% RH, 8 Weeks): 0.07 % w/w
Unknown Impurity RRT 2.6 (25° C./60% RH, 8 Weeks): 0.05 % w/w
Unknown Impurity RRT 2.8 (25° C./60% RH, 8 Weeks): 0.03 % w/w
3L1O Purity (25° C./60% RH, 8 Weeks): 98.47 % Area
Total Impurities (25° C./60% RH, 8 Weeks): 1.53 % Area
Unknown Impurity RRT 0.24 (40° C./75% RH, 2 Weeks): 0.06 % w/w
Unknown Impurity RRT 0.58 (40° C./75% RH, 2 Weeks): 0.07 % w/w
Unknown Impurity RRT 0.59 (40° C./75% RH, 2 Weeks): 0.06 % w/w
Unknown Impurity RRT 0.62 (40° C./75% RH, 2 Weeks): 0.06 % w/w
Unknown Impurity RRT 0.81 (40° C./75% RH, 2 Weeks): 0.02 % w/w
Unknown Impurity RRT 0.87 (40° C./75% RH, 2 Weeks): 0.13 % w/w
Unknown Impurity RRT 0.89 (40° C./75% RH, 2 Weeks): 0.07 % w/w
Unknown Impurity RRT 1.02 (40° C./75% RH, 2 Weeks): 0.07 % w/w
Unknown Impurity RRT 1.11 (40° C./75% RH, 2 Weeks): 0.06 % w/w
